# Measured values taken from patent US20200371122A1, “BIOMARKER FOR SENESCENT CELLS” (Buck Institute for Research on Aging, priority 2017, published 2020).
# Tests used:
# [1] = tested on: IL-6 secretion in senescent cells; assay: IL-6 ELISA on conditioned media of IR-induced senescent cells treated with COX-2/ALOX5 inhibitors; format: cell-based, human; settings: SEN(IR) IMR-90, inhibitor for 10 days
# Experimental: (§1) Human fetal lung fibroblasts (IMR-90) were cultured in Dulbecco's modified eagle medium (DMEM) supplemented with 10% FBS and penicillin/streptomycin. LL 29 (AnHa) cells were obtained from the ATCC and growth to confluence using the ATCC protocol, but were subcultured as described for IMR-90 before initiation of all experiments. Quiescence was induced by replacing culture media with media containing 0.2% FBS. MCF-7 and MDA-MB-231 breast cancer cells were cultured in RPMI supplemented with 10% FBS and penicillin/streptomycin. All cells were cultured at 3% O2, and used between 25 and 40 population doublings. All cells were mycoplasma free.
# Senescence was induced by irradiation with 10 Gy of ionizing radiation. Non-senescent controls (proliferating or quiescent) were placed in the irradiator for an identical period of time without turning on the irradiator. Oncogene-induced senescence was induced via lentiviral overexpression of HRAS^V12, as described previously (Wiley et al. (2016) Cell Metab. 23: 303-314).
# 3×10^4 cells in 12-well plates were treated as indicated in the text, and cultured in 0.5-1 ml serum-free DMEM for 24 hr. CM were collected and clarified at 2,000×g for 10 min. Supernatants were transferred to a tube; cells were trypsinized and counted. CM (2.5 μl) were analyzed by bead-based ELISAs (AlphaLISA, Perkin-Elmer) as instructed by the manufacturer and normalized to cell number.
# IMR-90 fibroblasts = format: cell-based, human
# Experimental: as §1
# RNA was extracted from cells or tissues using commercially available kits (Isolate II—Bioline for cells; Direct-zol—Zymo for tissues) according to the manufacturer's instructions. cDNA synthesis was performed using a High Capacity cDNA Reverse Transcription Kit (Thermo Fisher) according to the manufacturer's instructions. Quantitative PCR was performed on a LightCycler 480 II (Roche) using primers and probes designed for the Universal Probe Library. Primers and probes used for human transcripts were ACTB: 5′-CCAACCGCGAGAAGATGA (SEQ ID NO:1), 5′-TCCATCACGATGCCAGTG (SEQ ID NO:2), Probe #64; TUBA: 5′-cttcgtctccgccatcag (SEQ ID NO:3), 5′-ttgccaatctggacacca (SEQ ID NO:4), Probe #58; ALOX5: 5′-[…] (SEQ ID NO:5), 5′-[…] (SEQ ID NO:6), Probe #64; ALOX5AP: 5′-ggtctgcggggctacttt (SEQ ID NO:7), 5′-[…] (SEQ ID NO:8), Probe #18; ALOX12: 5′-[…] (SEQ ID NO:9), 5′-agccaggtcgtcaggag (SEQ ID NO:10), Probe #32; ALOX15: 5′-[…] (SEQ ID NO:11), 5′-[…] (SEQ ID NO:12), Probe #76; ALOX15B: 5′-[…] (SEQ ID NO:13), 5′-actgggaggcgaagaagg (SEQ ID NO:14), Probe #51; AKR1C1: 5′-catgcctgtcctgggattt (SEQ ID NO:15), 5′-[…] (SEQ ID NO:16), Probe #49; AKR1C2: 5′-ctatgcgcctgcagaggt (SEQ ID NO:17), 5′-[…] (SEQ ID NO:18), Probe #31; AKR1C3: 5′-[…] (SEQ ID NO:19), 5′-[…] (SEQ ID NO:20), Probe #78; CYSLTR2: 5′-[…] (SEQ ID NO:21), 5′-[…] (SEQ ID NO:22), Probe #18; DPEP1: 5′-gacgtcctgaggctggtg (SEQ ID NO:23), 5′-[…] (SEQ ID NO:24), Probe #9 (SEQ ID NO:25), ELOVL2: 5′-[…] (SEQ ID NO:26), 5′-[…] (SEQ ID NO:27), Probe #53; ELOVL4: 5′-catttggcccatggattc (SEQ ID NO:28), 5′-[…] (SEQ ID NO:29), Probe #31; ELOVL5: 5′-cccttccatgcgtccata (SEQ ID NO:30), 5′-[…] (SEQ ID NO:31), Probe #31; EPHX2: 5′-ttctgctggacaccctgaa (SEQ ID NO:32), 5′-[…] (SEQ ID NO:33), Probe #45; GPX4: 5′-ttcccgtgtaaccagttcg (SEQ ID NO:34), 5′-[…] (SEQ ID NO:35), Probe #36; LTA4H: 5′-ctgctctcacggtccagtc (SEQ ID NO:36), 5′-[…] (SEQ ID NO:37), Probe #64; LTBR2: 5′-[…] (SEQ ID NO:38), 5′-[…] (SEQ ID NO:39), Probe #33; LTC4S: 5′-[…] (SEQ ID NO:40), 5′-[…] (SEQ ID NO:41), Probe #18; PTGDS: 5′-[…] (SEQ ID NO:42), 5′-[…] (SEQ ID NO:43), Probe #36; PTGES: 5′-agagatgcctgcccacag (SEQ ID NO:44), 5′-tggccaccacgtacatctt (SEQ ID NO:45), Probe #4; PTGES2: 5′-[…] (SEQ ID NO:46), 5′-[…] (SEQ ID NO:47), Probe #49; PTGES3 (SEQ ID NO:48), 5′-[…] (SEQ ID NO:49), 5′-[…] (SEQ ID NO:50), Probe #48; PTGIS: 5′-[…] (SEQ ID NO:51), 5′-[…] (SEQ ID NO:52), Probe #45; PTGR1: 5′-atgatggggcagcaagtg (SEQ ID NO:53), 5′-cccatcagaaatggagtgc (SEQ ID NO:54), Probe #64; PTGS1: 5′-[…] (SEQ ID NO:55), 5′-gtggtggtccatgttcctg (SEQ ID NO:56), Probe #81; PTGS2: 5′-gatccccagggctcaaac (SEQ ID NO:57), 5′-[…] (SEQ ID NO:58), Probe #61; TBXAS1: 5′-[…] (SEQ ID NO:59), 5′-tgcctcccgtgtgaatct (SEQ ID NO:60), Probe #73; AREG: 5′-[…] (SEQ ID NO:61), 5′-[…] (SEQ ID NO:62), Probe #73; CCL2: 5′-AGTCTCTGCCGCCCTTCT (SEQ ID NO:63), 5′-GTGACTGGGGCATTGATTG (SEQ ID NO:64), Probe #40; CCL27: 5′-[…] (SEQ ID NO:65), 5′-gctgggtggcagtaggaat (SEQ ID NO:66), Probe #18; CXCL1: 5′-[…] (SEQ ID NO:67), 5′-[…] (SEQ ID NO:68), Probe #52; HGF: 5′-[…] (SEQ ID NO:69), 5′-[…]
smiles,measurement,setting,value
CS(=O)(=O)c1ccc(-c2noc(C(F)(F)F)c2-c2ccccc2)cc1 [CAY-10404],lowered IL-6 secretion in senescent cells,[1],~70%
same,number of cells following irradiation,"IMR-90 fibroblasts; 5 Gy IR, 10 days",significantly increased
same,cell number relative to DMSO-treated SEN(IR) cells,IMR-90 fibroblasts; SEN(IR) cells counted for IL-6 ELISA normalization,increase in cell number
